Assay results reported in patent US12391679B2, “Benzamide-substituted bicyclic imidazo- and pyrazolo-fused -pyridine, -pyrimide, and -pyridazine compounds for treatment of inflammatory diseases” (ONCO3R Therapeutics BV, priority 2019, dated 2025).

Experiments:
[1] = test system: LPS triggered IL-10 secretion in monocyte-derived macrophages; test: MdM assay: LPS-triggered IL-10 (ELISA); type: cell-based; conditions: Macrophage; human MdM; LPS 200 ng/mL; supernatant after 2 h; maximal fold change vs LPS only, median of two or more assays; read-out: IL-10 FCmax median
Method: SIK inhibition inhibits TNFα and increases IL-10 release in LPS triggered monocyte-derived macrophages (MdM) and dendritic cells (MdDCs) (Clark et al. 2012; Sundberg et al. 2014; Ozanne et al. 2015). This assay evaluates illustrative compounds of the invention for their inhibition of LPS-induced TNFα and LPS triggered IL-10 secretion in monocyte-derived macrophages.
PBMCs are isolated from human blood samples (buffycoats). The buffy coat is aseptically transferred into a 50 mL Falcon tube, and diluted 1/2 in PBS. Falcon tubes are filled with 20 mL Lymphoprep™, on top of which 25 mL of the buffy coat is carefully added, tubes are centrifuged for 35 min at 400 g in temperature controlled centrifuge, without brake, at 25° C. PBMCs are aspirated from the white interface layer between sample and Lymphoprep™. PBMCs are washed five times in PBS. Cells are resuspended in RPMI 1640 complete medium supplemented with 10% FBS, 1% P/S, and cell density is determined using a hematologic analyzer (Sysmex XS-500i).
PBMCs are centrifuged at 300×g for 10 min and resuspended at a density of 1.0*10^7 cells/80 μL Miltenyi buffer (PBS, pH 7.4, 1% FBS, 2 mM EDTA).
Starting from this point of the protocol all steps are performed on ice. 20 μL of CD14+ micro-beads are added per 1.0*10^7 cells, the tube is mixed and incubated for 15 min in the fridge at 4° C. Cell suspension volume is adjusted to total volume of 100 mL using Miltenyi buffer, mixed gently and subsequently centrifuged for 10 min at 300×g. Supernatant is discarded and cell pellet is resuspended in 12 mL of Miltenyi buffer.
Four LS columns are placed in the MACS Separator (magnet) from Miltenyi Biotec, and are prewet by rinsing with 3 mL of MACS buffer per column. Three mL of cell suspension is added onto the column (max 1*10^8 of labelled cells/column), and columns are subsequently washed 3 times with 3 mL of Miltenyi buffer.
The columns are removed from the magnets, and 5 mL of Miltenyi buffer are added to the column to flush out the CD14+ fraction by pushing the plunger into the column. The flushed fractions are collected in a fresh 50 mL Falcon and volume is adjusted to 30 mL using Miltenyi buffer, cells are centrifuged for 10 min at 300×g. The obtained cell pellet is resuspended in 10 mL RPMI w/o FBS, and cell density is determined using a hematologic analyser (Sysmex XS-500i). 100 000 cells are seeded per well of a 96-well plate for differentiation to MdM in RPMI 1640 medium supplemented with 10% FBS, 1% P/S and 100 ng/mL rhM-CSF. On day 5 the medium is refreshed with 100 μL RPMI 1640 medium supplemented with 10% FBS, 1% P/S and 100 ng/mL rhM-CSF.
On day 10, MdMs are triggered and compound is added.
A compound dilution plate is made in 100% DMSO by 3-fold dilution of 10 mM stock solution. An intermediate dilution plate (10× final concentration) is made by diluting the compound dilution plate 50-fold in RPMI medium.
Medium is carefully removed from cell plates using multichannel pipette, and replaced by 80 μL fresh medium. 10 μL of the 10× final concentration compound is added to the cells and incubated for 1 hour at 37° C. before addition of trigger. No trigger conditions/trigger conditions are spiked with equal final DMSO concentrations of 0.2% DMSO. 10 μL of 10×LPS (final conc. 200 ng/mL) solution are added to all wells except for the ‘no trigger wells’ where 10 μL medium is added. Supernatant is collected after 2 h (IL-10 determination) and after 20 h (TNFα determination) of LPS triggering. […]

[2] = test system: LPS triggered IL-10 secretion in monocytes; test: Monocytes assay: LPS-triggered IL-10 (ELISA); type: cell-based, human; conditions: Homo sapiens, Monocyte, LPS-triggered IL-10 induction, median maximal fold change vs LPS only, read-out: IL-10 FCmax median
Outline: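 CD14+ monocytes bead-isolated from human PBMCs, pretreated with compound 1 h at 37 °C (0.2% DMSO), then stimulated with LPS 200 ng/mL for 4 h. Supernatant IL-10 measured by chemiluminescent sandwich ELISA; fold change versus LPS only per concentration, reported as maximal fold change (FCmax).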

COc1cc(-c2cnc3cc(C(C)(C)C#N)ccn23)cc(OC(F)F)c1C(=O)NC1CC1 [Cpd 19, 4-[7-(1-cyano-1-methyl-ethyl)imidazo[1,2-a]pyridin-3-yl]-N-cyclopropyl-2-(difluoromethoxy)-6-methoxy-benzamide]
maximal fold induction [1]: < 1.5 | maximal fold induction [2]: < 1.5

COc1cc(-c2cnn3cc(C(C)(C)C#N)ccc23)cc(OC(F)F)c1C(=O)NC1CC1 [Cpd 208, 4-[6-(1-cyano-1-methyl-ethyl)pyrazolo[1,5-a]pyridin-3-yl]-N-cyclopropyl-2-(difluoromethoxy)-6-methoxy-benzamide]
maximal fold induction [1]: < 1.5 | maximal fold induction [2]: < 1.5

COc1cc(-c2cnn3cc(C(C)(C)O)ccc23)cc(OC(F)F)c1C(=O)N[C@@H]1C[C@@H]1F [Cpd 227, 2-(difluoromethoxy)-N-[(1R,2S)-2-fluorocyclopropyl]-4-[6-(1-hydroxy-1-methyl-ethyl)pyrazolo[1,5-a]pyridin-3-yl]-6-methoxy-benzamide]
maximal fold induction [1]: 1.5 to 4.5 | maximal fold induction [2]: < 1.5

COc1cc(-c2cnc3cc(C(C)(C)C#N)cnn23)cc(OC(F)F)c1C(=O)N[C@@H]1C[C@@H]1F [Cpd 228, 4-[7-(1-cyano-1-methyl-ethyl)imidazo[1,2-b]pyridazin-3-yl]-2-(difluoromethoxy)-N-[(1R,2S)-2-fluorocyclopropyl]-6-methoxy-benzamide]
maximal fold induction [1]: < 1.5 | maximal fold induction [2]: < 1.5

COc1cc(-c2cnn3cc(C(C)(C)C#N)cnc23)cc(OC(F)F)c1C(=O)N[C@@H]1C[C@@H]1F [Cpd 231, 4-[6-(1-cyano-1-methyl-ethyl)pyrazolo[1,5-a]pyrimidin-3-yl]-2-(difluoromethoxy)-N-[(1R,2S)-2-fluorocyclopropyl]-6-methoxy-benzamide]
maximal fold induction [1]: 1.5 to 4.5 | maximal fold induction [2]: < 1.5

COc1cc(-c2cnn3cc(C(C)(C)CO)ccc23)cc(OC(F)F)c1C(=O)N[C@@H]1C[C@@H]1F [Cpd 242, 2-(difluoromethoxy)-N-[(1R,2S)-2-fluorocyclopropyl]-4-[6-(2-hydroxy-1,1-dimethyl-ethyl)pyrazolo[1,5-a]pyridin-3-yl]-6-methoxy-benzamide]
maximal fold induction [1]: < 1.5 | maximal fold induction [2]: < 1.5

COc1cc(-c2cnn3cc(C4(C#N)CCOCC4)ccc23)cc(OC(F)F)c1C(=O)N[C@@H]1C[C@@H]1F [Cpd 243, 4-[6-(4-cyanotetrahydropyran-4-yl)pyrazolo[1,5-a]pyridin-3-yl]-2-(difluoromethoxy)-N-[(1R,2S)-2-fluorocyclopropyl]-6-methoxy-benzamide]
maximal fold induction [1]: < 1.5 | maximal fold induction [2]: < 1.5

COc1cc(-c2cnn3cc(C(C)(C)C#N)ccc23)cc(OC)c1C(=O)N[C@@H]1C[C@@H]1F [Cpd 245, 4-[6-(1-cyano-1-methyl-ethyl)pyrazolo[1,5-a]pyridin-3-yl]-N-[(1R,2S)-2-fluorocyclopropyl]-2,6-dimethoxy-benzamide]
maximal fold induction [1]: < 1.5 | maximal fold induction [2]: < 1.5

COc1cc(-c2cnn3cc(C4(C(N)=O)CCC4)ccc23)cc(OC(F)F)c1C(=O)N[C@@H]1C[C@@H]1F [Cpd 254, 4-[6-(1-carbamoylcyclobutyl)pyrazolo[1,5-a]pyridin-3-yl]-2-(difluoromethoxy)-N-[(1R,2S)-2-fluorocyclopropyl]-6-methoxy-benzamide]
maximal fold induction [1]: < 1.5 | maximal fold induction [2]: < 1.5

COc1cc(-c2cnn3cc(C(C)(C)N)ccc23)cc(OC(F)F)c1C(=O)N[C@@H]1C[C@@H]1F [Cpd 256, 4-[6-(1-amino-1-methyl-ethyl)pyrazolo[1,5-a]pyridin-3-yl]-2-(difluoromethoxy)-N-[(1R,2S)-2-fluorocyclopropyl]-6-methoxy-benzamide]
maximal fold induction [1]: 1.5 to 4.5 | maximal fold induction [2]: < 1.5

COc1cc(-c2cnn3cc(C4(N)CCC4)ccc23)cc(OC(F)F)c1C(=O)N[C@@H]1C[C@@H]1F [Cpd 261, 4-[6-(1-aminocyclobutyl)pyrazolo[1,5-a]pyridin-3-yl]-2-(difluoromethoxy)-N-[(1R,2S)-2-fluorocyclopropyl]-6-methoxy-benzamide]
maximal fold induction [1]: < 1.5 | maximal fold induction [2]: < 1.5
